Literature values, collected in US5952306A, “Integrin receptor antagonists” (Merck & Co., Inc., priority 1997, dated 1999).

Experiments:
[1] = tested on: cell attachment-promoting effects of fibronectin and vitronectin
[2] = tested on: platelet aggregation and thrombus formation in mammalian blood

For “arginine-glycine-aspartic acid [Arg-Gly-Asp]”, the “activity (duplicate or inhibit cell attachment-promoting effects)” value [1] is given as “low activity”.

In the case of Echistatin, the block bone resorption (bone resorption) is given as “can effectively block bone resorption”.

In the case of “N-amidino-piperidine-3-carboxylglycyl-L-aspartyl-L-valine”, the “inhibit platelet aggregation and thrombus formation in mammalian blood” value [2] is listed as “inhibit platelet aggregation and thrombus formation”.
